Results from US3978129A, “Alkenyl- and alkanylamines” (A. H. Robins Company, Incorporated, priority 1972, dated 1976).
Counter-ions that a name gives are not always drawn.

System: depressant effects of tetrabenazine
Assay: Blocking the depressant effects induced in mice by intravenous tetrabenazine (modified Englehardt procedure, increased tetrabenazine dosage)
Assay type: in vivo
Details: Mus musculus, ip, compounds I.P.
Procedure: The compounds were administered to mice intraperitoneally and the effectiveness of the compounds in blocking the depressant effects which are induced in mice by intravenous administration of 2-oxo-3-isobutyl-9,10-di-methoxy-1,2,3,4,6,7-hexahydro-11-bh-benzo[a]quinolizine (tetrabenazine was determined. The procedure used was a modification of that given by Englehardt, E. L. et al, J. Med. Chem. 11 (2) : 325(1968) wherein tetrabenazine dosage is increased over the Englehardt procedure. The ED50 of the compounds tested in blocking the depressant activity of tetrabenazine are given in Table I.

| Compound | ED50 |
| --- | --- |
| CN(C)CC=C(CCCBr)c1ccccc1 [Example 2, 6-Bromo-N,N-dimethyl-3-phenyl-2-hexenylamine Hydrobromide] | 0.5 mg/kg |
| CN(C)CCC(=CCCBr)c1ccccc1 [Example 3, 6-Bromo-N,N-dimethyl-N,N-dimethyl-3-hexenylamine Hydrobromide] | 1.9 mg/kg |
| CN(C)CCC(=CCCCl)c1ccccc1 [Example 1, 6-Chloro-N,N-dimethyl-3-phenyl-3-hexenylamine Hydrochloride] | 2.5 mg/kg |
| CN(C)CCC(CCCCl)c1ccccc1 (centres unmarked) [Example 8, 6-Chloro-N,N-dimethyl-3-phenylhexylamine Hydrochloride] | 3.6 mg/kg |
| CN(C)CCC=C(CCCCl)c1ccccc1 [Example 5, 7-Chloro-N,N-dimethyl-4-phenyl-3-heptenylamine Oxalate] | 10 mg/kg |
| CN(C)CCCC(=CCCCl)c1ccccc1 [Example 4, 7-Chloro-N,N-dimethyl-4-phenyl-4-heptenylamine Oxalate] | 20 mg/kg |
| COc1ccc(C(=CCCCl)CCN(C)C)cc1 [Example 6, 6-Chloro-N,N-dimethyl-3-(4-methoxyphenyl)-3-hexenylamine Hydrochloride] | 28.5 mg/kg |
| CN(C)CCC(=CCCCl)c1cccc(C(F)(F)F)c1 [Example 7, 6-Chloro-N,N-dimethyl-3-(3-trifluoromethylphenyl)-3-hexenylamine Oxalate] | 15.5 mg/kg |
